Measured values taken from publication PMC5603267 (Cell metabolism, 2017).

Columns and labels:
[1] = target: acetyl-CoA carboxylase 1 (ACC1) (Homo sapiens, UniProt Q13085); assay: purified ACC incubated with MK-4074, ATP, acetyl-CoA and NaH14CO3; assay type: biochemical
[2] = target: acetyl-CoA carboxylase 2 (ACC2) (Homo sapiens, UniProt O00763); assay: as above; assay type: biochemical
acetyl-CoA carboxylase 2 (ACC2), sequence (O00763 whole entry): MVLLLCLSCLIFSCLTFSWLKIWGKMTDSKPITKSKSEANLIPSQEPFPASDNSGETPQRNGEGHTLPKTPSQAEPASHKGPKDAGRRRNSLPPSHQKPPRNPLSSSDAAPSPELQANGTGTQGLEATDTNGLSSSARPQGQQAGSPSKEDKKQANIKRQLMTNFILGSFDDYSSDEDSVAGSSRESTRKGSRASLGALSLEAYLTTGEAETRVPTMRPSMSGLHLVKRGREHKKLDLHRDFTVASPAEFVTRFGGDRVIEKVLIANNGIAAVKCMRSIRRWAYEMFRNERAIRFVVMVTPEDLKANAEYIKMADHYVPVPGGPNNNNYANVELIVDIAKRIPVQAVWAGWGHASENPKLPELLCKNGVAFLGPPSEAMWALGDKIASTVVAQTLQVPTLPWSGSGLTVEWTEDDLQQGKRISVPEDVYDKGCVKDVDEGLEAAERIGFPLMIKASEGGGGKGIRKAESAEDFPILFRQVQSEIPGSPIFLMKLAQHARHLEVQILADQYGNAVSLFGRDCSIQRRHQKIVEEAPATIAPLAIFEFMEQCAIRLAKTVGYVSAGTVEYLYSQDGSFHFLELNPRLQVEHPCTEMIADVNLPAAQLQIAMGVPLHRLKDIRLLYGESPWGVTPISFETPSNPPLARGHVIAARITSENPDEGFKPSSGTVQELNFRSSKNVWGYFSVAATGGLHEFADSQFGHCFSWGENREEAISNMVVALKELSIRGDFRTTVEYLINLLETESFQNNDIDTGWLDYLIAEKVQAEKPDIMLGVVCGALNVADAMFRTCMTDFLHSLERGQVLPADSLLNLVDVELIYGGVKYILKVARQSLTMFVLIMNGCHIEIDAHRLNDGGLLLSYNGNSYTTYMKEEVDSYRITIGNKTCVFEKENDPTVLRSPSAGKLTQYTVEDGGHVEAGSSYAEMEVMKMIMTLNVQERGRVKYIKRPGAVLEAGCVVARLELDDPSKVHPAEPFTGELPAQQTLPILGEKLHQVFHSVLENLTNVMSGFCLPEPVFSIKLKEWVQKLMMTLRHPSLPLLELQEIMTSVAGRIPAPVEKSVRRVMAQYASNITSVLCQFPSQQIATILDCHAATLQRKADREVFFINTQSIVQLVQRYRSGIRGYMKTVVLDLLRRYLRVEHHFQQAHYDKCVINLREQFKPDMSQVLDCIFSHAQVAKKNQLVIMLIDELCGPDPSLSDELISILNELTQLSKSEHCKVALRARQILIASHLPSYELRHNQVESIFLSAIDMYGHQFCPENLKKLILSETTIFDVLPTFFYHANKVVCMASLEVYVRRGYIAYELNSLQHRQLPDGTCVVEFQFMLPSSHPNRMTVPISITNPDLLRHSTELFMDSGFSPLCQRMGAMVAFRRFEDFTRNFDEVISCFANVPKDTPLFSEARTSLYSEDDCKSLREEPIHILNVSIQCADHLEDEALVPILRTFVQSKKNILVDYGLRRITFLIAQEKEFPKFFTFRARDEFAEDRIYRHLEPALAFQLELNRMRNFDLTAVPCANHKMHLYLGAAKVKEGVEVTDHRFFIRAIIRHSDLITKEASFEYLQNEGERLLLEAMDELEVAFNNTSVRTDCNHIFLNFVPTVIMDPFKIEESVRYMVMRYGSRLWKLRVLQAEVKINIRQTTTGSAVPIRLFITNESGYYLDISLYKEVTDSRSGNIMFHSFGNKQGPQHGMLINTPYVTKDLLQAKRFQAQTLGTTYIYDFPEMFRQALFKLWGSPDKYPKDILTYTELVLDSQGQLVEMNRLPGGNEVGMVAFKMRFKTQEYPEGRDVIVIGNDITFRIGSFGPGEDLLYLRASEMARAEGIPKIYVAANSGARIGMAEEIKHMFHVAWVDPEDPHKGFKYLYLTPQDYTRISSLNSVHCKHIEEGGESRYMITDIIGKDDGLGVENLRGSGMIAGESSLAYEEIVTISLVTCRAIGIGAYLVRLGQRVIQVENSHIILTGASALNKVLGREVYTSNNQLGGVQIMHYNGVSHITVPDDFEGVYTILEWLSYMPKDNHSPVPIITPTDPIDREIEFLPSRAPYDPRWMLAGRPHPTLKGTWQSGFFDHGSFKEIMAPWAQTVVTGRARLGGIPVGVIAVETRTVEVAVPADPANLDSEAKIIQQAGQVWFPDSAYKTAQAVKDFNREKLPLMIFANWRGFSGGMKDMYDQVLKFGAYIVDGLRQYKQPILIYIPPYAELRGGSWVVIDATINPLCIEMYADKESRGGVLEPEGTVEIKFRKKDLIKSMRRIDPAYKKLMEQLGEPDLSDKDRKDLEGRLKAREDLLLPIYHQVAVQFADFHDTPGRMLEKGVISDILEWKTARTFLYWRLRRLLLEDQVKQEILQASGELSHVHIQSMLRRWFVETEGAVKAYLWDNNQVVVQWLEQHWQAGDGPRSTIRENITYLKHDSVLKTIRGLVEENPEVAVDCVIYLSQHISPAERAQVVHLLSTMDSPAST

SMILES: COc1cc(C(=O)N2CCC3(CC2)CC(=O)c2cc(-c4cncc(C(=O)O)c4)ccc2O3)cc2c1c(C)cn2C1CC1 [MK-4074]
- IC50 [1]: ~3 nM
- IC50 [2]: ~3 nM
